The source of these data is US20110190162A1, “METHOD OF NUCLEIC ACID DELIVERY INTO THREE-DIMENSIONAL CELL CULTURE ARRAYS” (priority 2009, published 2011).

Data set [1] deals with parent HepG2 cells (control). Nature of the data set: Acetaminophen toxicity, cell viability. Format: cell-based. The conditions noted are these: Homo sapiens, 24 h exposure, read-out: calculated IC50 (cell viability).
Data set [2] in a line: Metabolism-induced toxicity assay, cell viability. Format: cell-based. Conditions: human, HepG2 cells infected with Ad-3A4 (expressing CYP3A4); HepG2 transfected with Ad-3A4 at 40 MOI, 24 h exposure; read-out: calculated IC50 (cell viability). Here is the method:
Metabolism-induced toxicity assay was performed with acetaminophen on HepG2 cells expressing CYP3A4. After transfecting HepG2 cells with Ad-3A4 at 40 MOI, HepG2 cells were exposed to acetaminophen at varying concentrations for 24 h. HepG2 cell viability decreased as acetaminophen concentration increased.

As to `CC(=O)Nc1ccc(O)cc1` [acetaminophen], in data set [1], the 50% inhibitory concentration (IC50) – broadly, the concentration at which inhibition is half-maximal – was 17.5 mM. The half-inhibitory concentration (IC50) at 24 h in data set [2] is 7.3 mM.
